# Experimental data published in patent publication US6515022B2, “Use of inhaled retinoids in the treatment of lung diseases” (Sloan-Kettering Institute for Cancer Research, priority 1996, dated 2003).
# Read-outs that look alike come from different tables or passages of the source.
# What was measured:
# [1] = Tissue/plasma concentrations after intra-tracheal instillation (HPLC); format: in vivo, Sprague-Dawley rats; details: Sprague-Dawley, other: intra-tracheal instillation, rat, 100 μg intra-tracheal instillation
# Procedure: To evaluate the bioavailability of retinoids delivered by inhalation, 100 μl of an aqueous solution containing 100 μg of all-trans retinoic acid was administered via intra-tracheal instillation to 3 Sprague-Dawley rats, each weighing approximately 200 g. One rat was then sacrificed at three time points: 1, 6 and 24 hours after treatment. At the time of sacrifice, the chest cavity was opened, both lungs and trachea were removed en bloc, and the right and left lungs were separated by dissection. The liver was also removed, along with a sample of blood obtained by cardiac puncture. The blood sample was separated by centrifugation, and plasma plus each of the aforementioned tissues were frozen for later analysis. Subsequently, the tissue was homogenized, and the homogenized tissue and plasma were extracted with ethanol.
# [2] = Attempts at aqueous solutions (MOLECUSOL, ammonium salt); format: physicochemical; details: solutions containing 45% MOLECUSOL (modified beta cyclodextrin)
# From the text: Next, because of a report that the solubility of retinol (vitamin A) in water could be increased by addition of modified beta cyclodextrin (MOLECUSOL®), we next tried to prepare aqueous solutions of all-trans retinoic acid using MOLECUSOL® to enhance the solubility. […] Similarly, efforts to solubilize all-trans retinoic acid in aqueous solution using phosphatidylcholine and phosphatidylethanolamine produced a viscous colloid which was unsuited for aerosol administration.
# We next tried to use salts of the retinoids to obtain a water-soluble product for aerosol generation. When all-trans retinoic acid is treated with ammonium hydroxide, a water-soluble ammonium salt is obtained. The pH of solutions of this salt is too high (pH >10), however, for direct administration as an aerosol. Neutralization of the solution after dissolution of the retinoid led to the formation of a precipitate, both in the presence and absence of added beta cyclodextrin.
# [3] = Histologic examination of lungs and trachea after single-dose administration; details: rat
# Procedure: Animals were sacrificed at 5 minutes and at 1, 2, 4 and 6 hours, and blood and liver and lung tissue were harvested for analysis by high performance liquid chromatography (HPLC) and histology. In addition, animals receiving the inhalant were sacrificed at 24 hours post-treatment.
# in vivo = details: rat
# Procedure: The biodistribution and pharmacokinetics of an inhaled formulation of all-trans retinoic acid were compared to both intra-tracheal and intravenous administration. Anesthetized (i.p. pentobarbitol 50 mg/kg) male Sprague-Dawley rats weighing 300 to 700 grams were treated by administration of all-trans retinoic acid by inhalation, iv injection or intra-tracheal injection. Inhaled and intra-tracheal injections were given through an endotracheal tube placed under direct vision over a guidewire as described by Weksler et al., J. Appl. Physiol. 76: 1823-1825 (1994). IV doses were given by catheter injection via the right external jugular vein.
# For inhalation, all-trans retinoic acid was solublized in hydrofluorocarbon 123 using tetramethylamunonium hydroxide to a concentration of 5 mg/ml, and combined with hydrofluoroalkane 134a as propellant, for a final concentration of 1.5 mg per 1.475 grams of propellant solution. […] An identical inhaler containing propellant mixture without drug was used as a control. […] This procedure was also repeated with an angiocatheter fitted to the apparatus. The catheter was subsequently rinsed with 10 ml of isopropanol, which was also collected. The three solutions were then assayed for all-trans retinoic acid concentrations in order to determine the amount of drug delivered through the apparatus, as well as any residual drug that was bound to the angiocatheter. We defined the area under the concentration times-time curve (AUC) for animals who received intra-tracheal all-trans retinoic acid as 100% effective dose delivery to the lung.
# For injection, an aqueous solution of all-trans retinoic acid was prepared in 20% ethanol, 10% Tween 20 and 1 mM NH4OH, for a final concentration of […] all-trans retinoic acid per ml of solution. A mixture of 20% ethanol and 10% Tween 20 served as a control.
# Animals were grouped into three experimental groups and two control groups. The control groups received no treatment or a control inhalant containing no all-trans retinoic acid. Animals in the groups receiving iv or intra-tracheal injections each received a single dose containing 250 μg all-trans retinoic acid. Animals in the group treated with the multidose inhaler each received three doses for a total of 147 μg of all-trans retinoic acid.
# [4] = Solubility in chlorofluorocarbons with alkylamine solubilizers
# physchem [5] = details: organic solvent or mixture, thermodynamic from solid
# Procedure: Maximum solubility was determined by weighing the residue remaining after evaporation of the solvent.
# physchem [6] = details: HCFC-123 without alkylamine, organic solvent or mixture
# [7] = left lung, read-out: Left Lung concentration
# [8] = liver, read-out: Liver concentration
# [9] = plasma, read-out: Plasma concentration
# [10] = right lung, read-out: Right Lung concentration
# [11] = trachea, read-out: Trachea concentration
# [12] = male, Sprague-Dawley, inhaled or intranasal, 147 ug
# [13] = male, Sprague-Dawley, iv, 250 ug
compound,measurement,setting,value
CC1=C(/C=C/C(C)=C/C=C/C(C)=C/C(=O)O)C(C)(C)CCC1 [all-trans retinoic acid],concentration at 1 hour,[1]; [7],928 ng/g
same,concentration at 6 hours,[1]; [7],56 ng/g
same,concentration at 24 hours,[1]; [7],22 ng/g
same,concentration at 1 hour,[1]; [8],233 ng/g
same,concentration at 6 hours,[1]; [8],24 ng/g
same,concentration at 24 hours,[1]; [8],23 ng/g
same,concentration at 1 hour,[1]; [9],123 ng/mL
same,concentration at 24 hours,[1]; [9],178 ng/mL
same,concentration at 1 hour,[1]; [10],773 ng/g
same,concentration at 6 hours,[1]; [10],91 ng/g
same,concentration at 24 hours,[1]; [10],21 ng/g
same,concentration at 1 hour,[1]; [11],2860 ng/g
same,concentration at 6 hours,[1]; [11],96 ng/g
same,concentration at 24 hours,[1]; [11],30 ng/g
same,Solubility in aqueous solution,[2],enhance the solubility of the all-trans retinoic acid to a useful level
same,Histologic examination of lungs and traches,[3],no focal irritation attributable to the drug
same,"Lung AUC, intra-tracheal route relative to aerosolized route","in vivo; male, Sprague-Dawley",100 times
same,concentration at 1 hour,"in vivo; male, Sprague-Dawley",68 ± 44 ng/mL
same,AUC,"in vivo; male, Sprague-Dawley, 250 ug",191 ng·h/mL
same,Liver AUC,"in vivo; male, Sprague-Dawley, 250 ug",2532 ng-hr/gm
same,Lung AUC,"in vivo; male, Sprague-Dawley, 250 ug",26972 ng-hr/gm
same,half-life,"in vivo; male, Sprague-Dawley, 250 ug, Liver T½",22 h
same,half-life,"in vivo; male, Sprague-Dawley, 250 ug, Lung T½",17.7 h
same,half-life,"in vivo; male, Sprague-Dawley, 250 ug, Plasma T½",1.9 h
same,AUC,in vivo; [12],171 ng·h/mL
same,Liver AUC,in vivo; [12],2307 ng-hr/gm
same,Lung AUC,in vivo; [12],262 ng-hr/gm
same,half-life,"in vivo; male, Sprague-Dawley, inhaled or intranasal, 147 ug, Lung T½",5.4 h
same,half-life,"in vivo; male, Sprague-Dawley, inhaled or intranasal, 147 ug, Plasma T½",3 h
same,Total absorption (percent effective dose: inhaled AUC / intra-tracheal AUC),"in vivo; male, Sprague-Dawley, inhaled or intranasal, 250 ug",1-2%
same,AUC,in vivo; [13],1380 ng·h/mL
same,Liver AUC,in vivo; [13],4724 ng-hr/gm
same,Liver T½,in vivo; [13],0.8 h
same,Lung AUC,in vivo; [13],11910 ng-hr/gm
same,half-life,"in vivo; male, Sprague-Dawley, iv, 250 ug, Liver T½",1 h
same,half-life,"in vivo; male, Sprague-Dawley, iv, 250 ug, Lung T½",1.9 h
same,"Lung AUC, intra-tracheal route relative to iv route",in vivo,twice
same,Maximum Solubility,"[4]; HCFC-123, alkylamine 1.44 mg/ml",˜17 mg/ml
same,Maximum Solubility,"[4]; HCFC-123, alkylamine 7.22 mg/ml",˜44 mg/ml
same,solubility,physchem [5]; ethyl acetate,10000 µg/mL
same,solubility,physchem [5]; methylene chloride,5000 µg/mL
same,solubility,physchem [6],~2000 µg/mL
